A compilation of properties of binary mixtures (doi:10.1021/acs.jpcb.8b06939)

Test: xn = mol fraction of the nth substance listed
Conditions: 100 kPa

OC[C@H]1O[C@@H](O[C@H]2[C@H](O)[C@@H](O)C(O)O[C@@H]2CO)[C@H](O)[C@@H](O)[C@@H]1O (stereo partly specified) + CC(=O)[O-].CC[n+]1ccn(C)c1
viscosity (282.5 K, x1 = 0.005): 407 mPa·s | viscosity (282.5 K, x1 = 0.0151): 517 mPa·s | viscosity (282.5 K, x1 = 0.0255): 756 mPa·s | viscosity (282.5 K, x1 = 0.0524): 2299 mPa·s | viscosity (283.3 K, x1 = 0.0807): 7397 mPa·s | viscosity (292.4 K, x1 = 0.005): 185 mPa·s | viscosity (292.4 K, x1 = 0.0151): 245 mPa·s | viscosity (292.4 K, x1 = 0.0524): 870 mPa·s | viscosity (293.3 K, x1 = 0.0807): 2397 mPa·s | viscosity (303 K, x1 = 0.005): 100 mPa·s | viscosity (303 K, x1 = 0.0151): 123 mPa·s | viscosity (303 K, x1 = 0.0255): 165 mPa·s | viscosity (303 K, x1 = 0.0524): 380 mPa·s | viscosity (312.5 K, x1 = 0.0255): 97 mPa·s | viscosity (312.5 K, x1 = 0.0524): 193 mPa·s | viscosity (312.5 K, x1 = 0.0807): 419 mPa·s | viscosity (322.6 K, x1 = 0.005): 38 mPa·s | viscosity (322.6 K, x1 = 0.0255): 58 mPa·s | viscosity (322.6 K, x1 = 0.0524): 111 mPa·s | viscosity (332.2 K, x1 = 0.005): 28 mPa·s | viscosity (332.2 K, x1 = 0.0151): 32 mPa·s | viscosity (332.2 K, x1 = 0.0524): 68 mPa·s | viscosity (341.3 K, x1 = 0.0151): 23 mPa·s | viscosity (341.3 K, x1 = 0.0524): 47 mPa·s | viscosity (342.5 K, x1 = 0.0255): 29 mPa·s | viscosity (342.5 K, x1 = 0.0807): 77 mPa·s | viscosity (352.1 K, x1 = 0.005): 15 mPa·s | viscosity (352.1 K, x1 = 0.0151): 18 mPa·s | viscosity (352.1 K, x1 = 0.0255): 21 mPa·s | viscosity (352.1 K, x1 = 0.0524): 34 mPa·s | viscosity (352.1 K, x1 = 0.0807): 53 mPa·s | viscosity (362.3 K, x1 = 0.005): 13 mPa·s | viscosity (362.3 K, x1 = 0.0151): 14 mPa·s | viscosity (362.3 K, x1 = 0.0255): 16 mPa·s | viscosity (362.3 K, x1 = 0.0524): 24 mPa·s | viscosity (362.3 K, x1 = 0.0807): 38 mPa·s | viscosity (371.7 K, x1 = 0.005): 11 mPa·s | viscosity (371.7 K, x1 = 0.0151): 12 mPa·s | viscosity (371.7 K, x1 = 0.0255): 13 mPa·s | viscosity (371.7 K, x1 = 0.0807): 28 mPa·s | viscosity (373.1 K, x1 = 0.0524): 19 mPa·s

O=C[C@H](O)[C@@H](O)[C@H](O)[C@H](O)CO + CC(=O)[O-].CC[n+]1ccn(C)c1
viscosity (282.5 K, x1 = 0.0474): 756 mPa·s | viscosity (282.5 K, x1 = 0.095): 2299 mPa·s | viscosity (283.3 K, x1 = 0.1429): 7397 mPa·s | viscosity (292.4 K, x1 = 0.0095): 185 mPa·s | viscosity (292.4 K, x1 = 0.0284): 245 mPa·s | viscosity (292.4 K, x1 = 0.0474): 339 mPa·s | viscosity (292.4 K, x1 = 0.095): 870 mPa·s | viscosity (293.3 K, x1 = 0.1429): 2397 mPa·s | viscosity (302.1 K, x1 = 0.1429): 921 mPa·s | viscosity (303 K, x1 = 0.0095): 100 mPa·s | viscosity (303 K, x1 = 0.0284): 123 mPa·s | viscosity (303 K, x1 = 0.0474): 165 mPa·s | viscosity (303 K, x1 = 0.095): 380 mPa·s | viscosity (312.5 K, x1 = 0.0095): 61 mPa·s | viscosity (312.5 K, x1 = 0.0284): 73 mPa·s | viscosity (312.5 K, x1 = 0.0474): 97 mPa·s | viscosity (312.5 K, x1 = 0.095): 193 mPa·s | viscosity (322.6 K, x1 = 0.0095): 38 mPa·s | viscosity (322.6 K, x1 = 0.0284): 45 mPa·s | viscosity (322.6 K, x1 = 0.0474): 58 mPa·s | viscosity (322.6 K, x1 = 0.095): 111 mPa·s | viscosity (322.6 K, x1 = 0.1429): 207 mPa·s | viscosity (332.2 K, x1 = 0.0095): 28 mPa·s | viscosity (332.2 K, x1 = 0.0284): 32 mPa·s | viscosity (332.2 K, x1 = 0.0474): 39 mPa·s | viscosity (332.2 K, x1 = 0.095): 68 mPa·s | viscosity (341.3 K, x1 = 0.0284): 23 mPa·s | viscosity (341.3 K, x1 = 0.095): 47 mPa·s | viscosity (342.5 K, x1 = 0.0095): 20 mPa·s | viscosity (342.5 K, x1 = 0.0474): 29 mPa·s | viscosity (342.5 K, x1 = 0.1429): 77 mPa·s | viscosity (352.1 K, x1 = 0.0095): 15 mPa·s | viscosity (352.1 K, x1 = 0.0284): 18 mPa·s | viscosity (352.1 K, x1 = 0.0474): 21 mPa·s | viscosity (352.1 K, x1 = 0.095): 34 mPa·s | viscosity (352.1 K, x1 = 0.1429): 53 mPa·s | viscosity (362.3 K, x1 = 0.0095): 13 mPa·s | viscosity (362.3 K, x1 = 0.0284): 14 mPa·s | viscosity (362.3 K, x1 = 0.0474): 16 mPa·s | viscosity (362.3 K, x1 = 0.095): 24 mPa·s | viscosity (362.3 K, x1 = 0.1429): 38 mPa·s | viscosity (371.7 K, x1 = 0.0095): 11 mPa·s | viscosity (371.7 K, x1 = 0.0284): 12 mPa·s | viscosity (371.7 K, x1 = 0.0474): 13 mPa·s | viscosity (371.7 K, x1 = 0.1429): 28 mPa·s
